This note sets out measurements from patent US20240360148A1 (SUVALENT THERAPEUTICS, INC., priority 2021, published 2024).

The target in assay [1] is SAE1 (Homo sapiens (Human), UniProt Q9UBT2). In words: SAE High Throughput Biochemical Assay (HTRF), 15 min preincubation. To be noted: SAE1 12.5 nM, ATP 100 μM. In short, it runs like this:
(§1)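 HTRF detection of SUMO transfer from SUMO-GST to UBC9-His (40 nM each) by SAE1 at 12.5 nM used 100 μM ATP in pH 7.5 HEPES buffer with 10 mM MgCl2 and 0.1% BSA. Enzyme and compound were preincubated 15 min at RT and the reaction ran 45 min, with readings after 2 h and overnight.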

Assay [2] concerns sumoylation levels (SUMO 2/3 conjugates) in HCT-116 cells. In words: HCT-116 4 Hour Cell Assay (Western, SUMO 2/3 conjugates). Type of assay: cell-based. Particulars: Homo sapiens, HCT-116, 4 h, 4 h treatment, Anti-Sumo 2-3 immunoblot, read-out: HCT-116 Western 4 h IC50 (μM) Ave. The gist of the method: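 IC50 derived from fluorescent immunoblot quantification of SUMO 2/3 conjugate bands, normalized to total protein, after non-reducing SDS-PAGE. Lysis used RIPA plus NEM; exposure was 4 h across 11 concentrations, three-fold serial dilution starting at 25 μM.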
A general note: Immunoblotting shows a protein as a band on a membrane.

Assay [3] addresses SAE1 (Homo sapiens (Human), UniProt Q9UBE0+Q9UBT2). The assay can be described thus: SAE High Throughput Biochemical Assay (HTRF), 15 min preincubation. To be noted: read-out: 15 min preincubation HTRF IC50 (μM) Ave, SAE1 12.5 nM, ATP 100 μM. The gist of the method:
as §1

pIC50: −log10 of the molar value. Bounds are passed on as bounds.

SAE1 (Homo sapiens (Human), UniProt Q9UBT2), sequence (Q9UBE0 whole entry): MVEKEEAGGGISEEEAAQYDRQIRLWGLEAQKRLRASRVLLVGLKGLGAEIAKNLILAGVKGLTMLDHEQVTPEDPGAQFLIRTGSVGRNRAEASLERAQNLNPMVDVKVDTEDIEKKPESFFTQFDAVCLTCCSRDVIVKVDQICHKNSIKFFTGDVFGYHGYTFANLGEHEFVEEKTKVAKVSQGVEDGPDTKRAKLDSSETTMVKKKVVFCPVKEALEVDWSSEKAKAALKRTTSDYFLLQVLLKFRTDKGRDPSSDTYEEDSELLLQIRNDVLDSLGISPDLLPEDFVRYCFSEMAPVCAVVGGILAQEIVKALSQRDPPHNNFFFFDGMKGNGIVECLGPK
SAE1 (Homo sapiens (Human), UniProt Q9UBT2), sequence (Q9UBT2 whole entry): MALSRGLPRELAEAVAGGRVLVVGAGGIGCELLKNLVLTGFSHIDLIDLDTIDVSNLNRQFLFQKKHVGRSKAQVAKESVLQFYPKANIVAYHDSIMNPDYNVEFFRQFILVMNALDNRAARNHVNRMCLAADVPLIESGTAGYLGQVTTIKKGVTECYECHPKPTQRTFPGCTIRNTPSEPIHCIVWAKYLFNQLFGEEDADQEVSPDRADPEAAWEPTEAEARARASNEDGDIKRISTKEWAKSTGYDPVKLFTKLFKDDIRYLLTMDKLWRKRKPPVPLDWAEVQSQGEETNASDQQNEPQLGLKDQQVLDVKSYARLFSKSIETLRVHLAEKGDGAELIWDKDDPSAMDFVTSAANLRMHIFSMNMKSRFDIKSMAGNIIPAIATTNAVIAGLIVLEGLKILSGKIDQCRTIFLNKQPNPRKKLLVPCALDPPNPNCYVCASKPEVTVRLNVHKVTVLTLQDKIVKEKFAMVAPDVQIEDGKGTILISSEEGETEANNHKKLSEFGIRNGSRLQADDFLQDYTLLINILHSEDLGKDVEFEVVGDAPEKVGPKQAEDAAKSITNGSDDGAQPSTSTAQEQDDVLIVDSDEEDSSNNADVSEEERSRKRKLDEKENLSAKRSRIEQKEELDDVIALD
SAE1 (Homo sapiens (Human), UniProt Q9UBE0+Q9UBT2), sequence (Q9UBE0 whole entry): as the sequence (Q9UBE0 whole entry) above
SAE1 (Homo sapiens (Human), UniProt Q9UBE0+Q9UBT2), sequence (Q9UBT2 whole entry): as the sequence (Q9UBT2 whole entry) above

As for `CCn1cc(-c2ccccc2[C@@H]2CN(C(=O)/C=C/C(N)C3CC3)Cc3sc(C#N)cc32)c(C(F)(F)F)n1` (stereo partly drawn) [Example 42, (4S)-6-((E)-4-amino-4-cyclopropylbut-2-enoyl)-4-(2-(1-ethyl-3-(trifluoromethyl)-1 H-pyrazol-4-yl)phenyl)-4,5,6,7-tetrahydrothieno[2,3-c]pyridine-2-carbonitrile], in assay [1], the pIC50 is 5.08.
For the molecule `CCn1cc(-c2c(F)cccc2[C@@H]2CN(C(=O)/C=C\CN(C)C)Cc3sc(C#N)c(C)c32)c(C(F)(F)F)n1` [Compound 223], the IC50 in assay [2] stood at 0.0473 µM. For the same molecule, the pIC50 in assay [1] was 7.28.
`CCn1cc(-c2ccccc2[C@@H]2CN(C(=O)/C=C/[C@H](C)N(C)C)Cc3sc(C#N)cc32)c(C(F)(F)F)n1` [Example 13, (S)-6-((S, E)-4-(dimethylamino)pent-2-enoyl)-4-(2-(1-ethyl-3-(trifluoromethyl)-1 H-pyrazol-4-yl)phenyl)-4,5,6,7-tetrahydrothieno[2,3-c]pyridine-2-carbonitrile] had a pIC50 in assay [1] of 5.21.
For `CCn1cc(-c2ccccc2[C@@H]2CN(C(=O)/C=C/CNC3(C)CC3)Cc3sc(C#N)cc32)c(C(F)(F)F)n1` [Example 94, (S,E)-4-(2-(1-Ethyl-3-(trifluoromethyl)-1H pyrazol-4-yl)phenyl)-6-(4-((1-methylcyclopropyl)amino)but-2-enoyl)-4,5,6,7-tetrahydrothieno[2,3-c]pyridine-2-carbonitrile], the IC50 in assay [2] was found to be 1.16 µM. The pIC50 in assay [1] is 5.73.
The matching figures for `CC(C)n1cc(-c2ccccc2[C@@H]2CN(C(=O)/C=C/CN(C)C)Cc3sc(C#N)cc32)c(C(F)(F)F)n1` [Example 175]: 0.321 µM and 5.52.
In the case of `CCn1cc(-c2c(F)cccc2[C@@H]2CN(C(=O)/C=C\CNC)Cc3sc(C#N)c(C)c32)c(C(F)(F)F)n1` [Compound 225], the IC50 in assay [2] was 0.298 µM. In assay [1], this molecule had a pIC50 of 7.47.
Turning to `CCn1cc(-c2ccccc2[C@@H]2CN(C(=O)/C=C/CN(C)OC)Cc3sc(C#N)cc32)c(C(F)(F)F)n1` [Example 11, (S, E)-4-(2-(1-Ethyl-3-(trifluoromethyl)-1 H-pyrazol-4-yl)phenyl)-6-(4-(methoxy(methyl)amino)but-2-enoyl)-4,5,6,7-tetrahydrothieno[2,3-c]pyridine-2-carbonitrile], the pIC50 in assay [1] is less than 4.60.
For `CCn1cc(-c2ccccc2[C@@H]2CN(C(=O)/C=C/C(C)N(C)C)Cc3sc(C#N)cc32)c(C(F)(F)F)n1` (stereo partly drawn) [Compound 235], the half-inhibitory concentration (IC50) in assay [2] was determined as 0.285 µM. The molecule further had a pIC50 in assay [1] of 5.38.
`CCn1cc(-c2ccccc2[C@@H]2CN(C(=O)/C=C/CCNC)Cc3sc(C#N)cc32)c(C(F)(F)F)n1` [Example 45, (S, E)-4-(2-(1-ethyl-3-(trifluoromethyl)-1 H-pyrazol-4-yl)phenyl)-6-(5-(methylamino)pent-2-enoyl)-4,5,6,7-tetrahydrothieno[2,3-c]pyridine-2-carbonitrile]: in assay [1], the pIC50 is 4.64.
Same read-out and setting: to `CCC(N)/C=C/C(=O)N1Cc2sc(C#N)cc2[C@H](c2ccccc2-c2cn(CC)nc2C(F)(F)F)C1` (stereo partly drawn) [Example 39, (4S)-6-((E)-4-aminohex-2-enoyl)-4-(2-(1-ethyl-3-(trifluoromethyl)-1 H-pyrazol-4-yl)phenyl)-4,5,6,7-tetrahydrothieno[2,3-c]pyridine-2-carbonitrile] belongs 5.07; to `CCn1cc(-c2ccccc2[C@@H]2CN(C(=O)/C=C/C3CNC3)Cc3sc(C#N)cc32)c(C(F)(F)F)n1` [Example 108, (S, E)-6-(3-(Azetidin-3-yl)acryloyl)-4-(2-(1-ethyl-3-(trifluoromethyl)-1 H-pyrazol-4-yl)phenyl)-4,5,6,7-tetrahydrothieno[2,3-c]pyridine-2-carbonitrile], 4.96.
Same read-out and setting: to `CCn1cc(-c2cc(C(=O)NC)ccc2C2CN(C(=O)/C=C/CN(C)C)Cc3sc(C#N)cc32)c(C(F)(F)F)n1` (stereo not drawn) [Example 208, (E)-4-(2-Cyano-6-(4-(dimethylamino)but-2-enoyl)-4,5,6,7-tetrahydrothieno[2,3-c]pyridin-4-yl)-3-(1-ethyl-3-(trifluoromethyl)-1 H pyrazol-4-yl)-N-methylbenzamide] belongs less than 4.60.
Still for that read-out and setting: to `CCOC/C=C/C(=O)N1Cc2sc(C#N)cc2[C@H](c2ccccc2-c2cn(CC)nc2C(F)(F)F)C1` [Example 8, (S, E)-6-(4-Ethoxybut-2-enoyl)-4-(2-(1-ethyl-3-(trifluoromethyl)-1 H-pyrazol-4-yl)phenyl)-4,5,6,7 tetrahydrothieno[2,3-c]pyridine-2-carbonitrile] belongs 4.97.
For `CCn1cc(-c2ccccc2[C@@H]2CN(C(=O)/C=C/C(N)Cc3ccccc3)Cc3sc(C#N)cc32)c(C(F)(F)F)n1` (stereo partly drawn) [Example 44, (4S)-6-((E)-4-amino-5-phenylpent-2-enoyl)-4-(2-(1-ethyl-3-(trifluoromethyl)-1 H-pyrazol-4-yl)phenyl)-4,5,6,7-tetrahydrothieno[2,3-c]pyridine-2-carbonitrile], the pIC50 in assay [1] is 5.01.
Take `CCC(/C=C/C(=O)N1Cc2sc(C#N)cc2[C@H](c2ccccc2-c2cn(CC)nc2C(F)(F)F)C1)N(C)C` (stereo partly drawn) [Example 24, (4S)-6-((E)-4-(dimethylamino)hex-2-enoyl)-4-(2-(1-ethyl-3-(trifluoromethyl)-1 H-pyrazol-4-yl)phenyl)-4,5,6,7-tetrahydrothieno[2,3-c]pyridine-2-carbonitrile]: in assay [1], the pIC50 is less than 4.60.
Still for that read-out and setting: to `CCn1cc(-c2ccccc2[C@@H]2CN(C(=O)/C=C/CNC3(C)CNC3)Cc3sc(C#N)cc32)c(C(F)(F)F)n1` [Example 98, (S,E)-4-(2-(1-Ethyl-3-(trifluoromethyl)-1H pyrazol-4-yl)phenyl)-6-(4-((3-methylazetidin-3-yl)amino)but-2-enoyl)-4,5,6,7-tetrahydrothieno[2,3-c]pyridine-2-carbonitrile] belongs less than 4.60.
For the molecule `CCn1cc(-c2ccccc2[C@@H]2CN(C(=O)/C=C/[C@H]3CCCN3)Cc3sc(C#N)cc32)c(C(F)(F)F)n1` [Example 113, (S)-4-(2-(1-Ethyl-3-(trifluoromethyl)-1 H-pyrazol-4-yl)phenyl)-6-((E)-3-((R)-pyrrolidin-2-yl)acryloyl)-4,5,6,7-tetrahydrothieno[2,3-c]pyridine-2-carbonitrile], the IC50 in assay [2] was determined as 1.79 µM; in assay [3], 1.61 µM.
The matching figures for `CCn1cc(-c2ccccc2[C@@H]2CN(C(=O)C#C[C@]3(C)CCCN3)Cc3sc(C#N)cc32)c(C(F)(F)F)n1` [Example 140, (S)-4-(2-(1-Ethyl-3-(trifluoromethyl)-1 H-pyrazol-4-yl)phenyl)-6-(3-((S)-2-methylpyrrolidin-2-yl)propioloyl)-4,5,6,7-tetrahydrothieno[2,3-c]pyridine-2-carbonitrile]: 2.36 µM and 0.12 µM.
On the same counts, the results for `Cc1c(C#N)sc2c1[C@H](c1cccc(F)c1-c1cn(C)nc1C(F)(F)F)CN(C(=O)/C=C/[C@@H]1CCCN1)C2` [Example 251, (S)-4-(3-fluoro-2-(1-methyl-3-(trifluoromethyl)-1 H-pyrazol-4-yl)phenyl)-3-methyl-6-((E)-3-((S)-pyrrolidin-2-yl)acryloyl)-4,5,6,7-tetrahydrothieno[2,3-c]pyridine-2-carbonitrile] are 0.0822 µM and 0.11 µM.

Usually pIC50 stands for −log10 of the IC50, conventionally taken in molar units. The low end stands for a high IC50, the high end for a low IC50. The term IC50 denotes the concentration that gives 50% inhibition.
